According to patent publication US9309225B2, “N-((1-benzyl-1H-1,2,3-triazol-4-yl)methyl)arylamide compounds as potential anticancer agents and a process for the preparation thereof” (COUNCIL OF SCIENTIFIC & INDUSTRIAL RESEARCH, priority 2013, dated 2016):

What was measured:
[1] = tested on: SF-268; assay: NCI sixty human tumor cell line screen, CNS panel; assay type: cell-based; conditions: SF-268, CNS, NCI protocol
Protocol: (§1) The in vitro anticancer activity studies for these N-((1-benzyl-1H-1,2,3-triazol-4-yl)methyl) arylamide analogues were carried out at the National Cancer Institute, USA.
(§2) The N-((1-benzyl-1H-1,2,3-triazol-4-yl)methyl)arylamide analogues have been tested at NCI, USA, against sixty human tumor cell lines derived from nine cancer types (leukemia, non-small cell lung cancer, colon cancer, CNS cancer, melanoma cancer, ovarian cancer, renal cancer, prostate cancer and breast cancer). For these compounds results are expressed as growth inhibition (GI50) values as per NCI protocol.

[2] = tested on: SF-295; assay: NCI sixty human tumor cell line screen, CNS panel; assay type: cell-based; conditions: SF-295, CNS, NCI protocol
Protocol: as §1, §2

[3] = tested on: U251; assay: NCI sixty human tumor cell line screen, CNS panel; assay type: cell-based; conditions: U-251, NCI protocol
Protocol: as §1, §2

[4] = tested on: SNB-19; assay: NCI sixty human tumor cell line screen, CNS panel; assay type: cell-based; conditions: SNB-19, CNS, NCI protocol
Protocol: as §1, §2

[5] = tested on: SNB-75; assay: NCI sixty human tumor cell line screen, CNS panel; assay type: cell-based; conditions: SNB-75, CNS, NCI protocol
Protocol: as §1, §2

[6] = tested on: SF-539; assay: NCI sixty human tumor cell line screen, CNS panel; assay type: cell-based; conditions: SF-539, CNS, NCI protocol
Protocol: as §1, §2

[7] = tested on: NCI/ADR-RES; assay: NCI sixty human tumor cell line screen, Ovarian panel; assay type: cell-based; conditions: NCI protocol
Protocol: as §1, §2

[8] = tested on: OVCAR-4; assay: as above; assay type: cell-based; conditions: OVCAR-4, Ovarian, NCI protocol
Protocol: as §1, §2

[9] = tested on: OVCAR-3; assay: as above; assay type: cell-based; conditions: OVCAR-3, Ovarian, NCI protocol
Protocol: as §1, §2

[10] = tested on: SK-OV-3; assay: as above; assay type: cell-based; conditions: SK-OV-3, Ovarian, NCI protocol
Protocol: as §1, §2

[11] = tested on: OVCAR-8; assay: as above; assay type: cell-based; conditions: OVCAR-8, Ovarian, NCI protocol
Protocol: as §1, §2

[12] = tested on: MDA-MB-468; assay: NCI sixty human tumor cell line screen, Breast panel; assay type: cell-based; conditions: MDA-MB-468, Breast, NCI protocol
Protocol: as §1, §2

[13] = tested on: T-47D; assay: as above; assay type: cell-based; conditions: T47D, NCI protocol
Protocol: as §1, §2

[14] = tested on: MDA-MB-31/ATCC; assay: as above; assay type: cell-based; conditions: NCI protocol
Protocol: as §1, §2

[15] = tested on: BT-549; assay: as above; assay type: cell-based; conditions: BT-549, Breast, NCI protocol
Protocol: as §1, §2

[16] = tested on: UACC-62; assay: NCI sixty human tumor cell line screen, Melanoma panel; assay type: cell-based; conditions: UACC-62, Melanoma, NCI protocol
Protocol: as §1, §2

[17] = tested on: LOX IMVI; assay: as above; assay type: cell-based; conditions: NCI protocol
Protocol: as §1, §2

[18] = tested on: SK-MEL-5; assay: as above; assay type: cell-based; conditions: SK-MEL-5, Melanoma, NCI protocol
Protocol: as §1, §2

[19] = tested on: SK-MEL-28; assay: as above; assay type: cell-based; conditions: SK-MEL-28, Melanoma, NCI protocol
Protocol: as §1, §2

[20] = tested on: SK-MEL-2; assay: as above; assay type: cell-based; conditions: SK-MEL-2, Melanoma, NCI protocol
Protocol: as §1, §2

[21] = tested on: MDA-MB-435; assay: as above; assay type: cell-based; conditions: MDA-MB-435, Melanoma, NCI protocol
Protocol: as §1, §2

[22] = tested on: M14; assay: as above; assay type: cell-based; conditions: NCI protocol
Protocol: as §1, §2

[23] = tested on: HCT-116; assay: NCI sixty human tumor cell line screen, Colon panel; assay type: cell-based; conditions: HCT-116, Colon, NCI protocol
Protocol: as §1, §2

[24] = tested on: KM12; assay: as above; assay type: cell-based; conditions: NCI protocol
Protocol: as §1, §2

[25] = tested on: COLO 205; assay: as above; assay type: cell-based; conditions: COLO 205, Colon, NCI protocol
Protocol: as §1, §2

[26] = tested on: HT29; assay: as above; assay type: cell-based; conditions: HT-29, NCI protocol
Protocol: as §1, §2

[27] = tested on: SW-620; assay: as above; assay type: cell-based; conditions: SW-620, Colon, NCI protocol
Protocol: as §1, §2

[28] = tested on: NCI-H522; assay: NCI sixty human tumor cell line screen, Non-small-cell-lung panel; assay type: cell-based; conditions: NCI protocol
Protocol: as §1, §2

[29] = tested on: HOP-62; assay: as above; assay type: cell-based; conditions: HOP-62, Non-small-cell-lung, NCI protocol
Protocol: as §1, §2

[30] = tested on: NCI-H460; assay: as above; assay type: cell-based; conditions: NCI protocol
Protocol: as §1, §2

[31] = tested on: NCI-H226; assay: as above; assay type: cell-based; conditions: NCI protocol
Protocol: as §1, §2

[32] = tested on: A549/ATCC; assay: as above; assay type: cell-based; conditions: NCI protocol
Protocol: as §1, §2

[33] = tested on: EKVX; assay: as above; assay type: cell-based; conditions: NCI protocol
Protocol: as §1, §2

[34] = tested on: HL-60(TB); assay: NCI sixty human tumor cell line screen, Leukemia panel; assay type: cell-based; conditions: NCI protocol
Protocol: as §1, §2

[35] = tested on: CAKI-1; assay: NCI sixty human tumor cell line screen, Renal panel; assay type: cell-based; conditions: CAKI-1, Renal, NCI protocol
Protocol: as §1, §2

[36] = tested on: SN12C; assay: as above; assay type: cell-based; conditions: NCI protocol
Protocol: as §1, §2

[37] = tested on: UO-31; assay: as above; assay type: cell-based; conditions: UO-31, Renal, NCI protocol
Protocol: as §1, §2

[38] = tested on: RXF 393; assay: as above; assay type: cell-based; conditions: RXF 393, Renal, NCI protocol
Protocol: as §1, §2

[39] = tested on: ACHN; assay: as above; assay type: cell-based; conditions: NCI protocol
Protocol: as §1, §2

[40] = tested on: A498; assay: as above; assay type: cell-based; conditions: NCI protocol
Protocol: as §1, §2

[41] = tested on: TK-10; assay: as above; assay type: cell-based; conditions: TK-10, Renal, NCI protocol
Protocol: as §1, §2

[42] = tested on: PC-3; assay: NCI sixty human tumor cell line screen, Prostate panel; assay type: cell-based; conditions: PC-3, Prostate, NCI protocol
Protocol: as §1, §2

[43] = tested on: DU-145; assay: as above; assay type: cell-based; conditions: DU-145, Prostate, NCI protocol
Protocol: as §1, §2

COc1cc(Nc2ncccc2C(=O)NCc2cn(Cc3cccc(Oc4ccccc4)c3)nn2)cc(OC)c1 [Compound 1i, 2-(3,5-Dimethoxyphenylamino)-N-((1-(3-phenoxybenzyl)-1H-1,2,3-triazol-4-yl)methyl) nicotinamide]
GI50 [1]: 5.43 µM
GI50 [2]: 4.06 µM
GI50 [3]: 4.58 µM
GI50 [4]: 9.64 µM
GI50 [5]: 3.98 µM
GI50 [6]: 4.39 µM
GI50 [7]: 3.21 µM
GI50 [8]: 5.42 µM
GI50 [9]: 3.69 µM
GI50 [10]: 4.33 µM
GI50 [11]: 5.96 µM
GI50 [12]: 2.42 µM
GI50 [13]: 4.68 µM
GI50 [14]: 5.35 µM
GI50 [15]: 7.16 µM
melting point: 123 to 125 °C
GI50 [16]: 3.86 µM
GI50 [17]: 5.1 µM
GI50 [18]: 3.11 µM
GI50 [19]: 4.14 µM
GI50 [20]: 6.69 µM
GI50 [21]: 2.23 µM
GI50 [22]: 4.8 µM
GI50 [23]: 4.34 µM
GI50 [24]: 3.84 µM
GI50 [25]: 4.12 µM
GI50 [26]: 3.88 µM
GI50 [27]: 3.88 µM
GI50 [28]: 3.31 µM
GI50 [29]: 6.31 µM
GI50 [30]: 3.98 µM
GI50 [31]: 9.82 µM
GI50 [32]: 4.02 µM
GI50 [33]: 6.33 µM
GI50 [34]: 3.97 µM
GI50 [35]: 6.3 µM
GI50 [36]: 7.41 µM
GI50 [37]: 5.25 µM
GI50 [38]: 3.77 µM
GI50 [39]: 6.9 µM
GI50 [40]: 4.18 µM
GI50 [41]: 5.16 µM
GI50 [42]: 4.74 µM
GI50 [43]: 1.05 µM

O=C(NCc1cn(Cc2cccc(Oc3ccccc3)c2)nn1)c1cccnc1NCc1ccc(Cl)cc1 [Compound 1k, 2-(4-Chlorobenzylamino)-N-((1-(3-phenoxybenzyl)-1H-1,2,3-triazol-4-yl)methyl) nicotinamide]
GI50 [1]: 4.82 µM
GI50 [2]: 2.8 µM
GI50 [3]: 2.66 µM
GI50 [4]: 3.91 µM
GI50 [5]: 2.02 µM
GI50 [6]: 2.24 µM
GI50 [7]: 2.86 µM
GI50 [8]: 3.37 µM
GI50 [9]: 3.48 µM
GI50 [10]: 3.32 µM
GI50 [11]: 3.63 µM
GI50 [12]: 3.44 µM
GI50 [13]: 3.2 µM
GI50 [14]: 2.29 µM
GI50 [15]: 2.72 µM
melting point: 209 to 211 °C
GI50 [16]: 2.08 µM
GI50 [17]: 3.9 µM
GI50 [18]: 2.53 µM
GI50 [19]: 2.95 µM
GI50 [20]: 4.44 µM
GI50 [21]: 2.33 µM
GI50 [22]: 2.49 µM
GI50 [23]: 3.18 µM
GI50 [24]: 3.62 µM
GI50 [25]: 2.18 µM
GI50 [26]: 2.96 µM
GI50 [27]: 4.04 µM
GI50 [28]: 2.18 µM
GI50 [29]: 5.69 µM
GI50 [30]: 2.85 µM
GI50 [31]: 3.66 µM
GI50 [32]: 3.21 µM
GI50 [33]: 3.65 µM
GI50 [34]: 3.39 µM
GI50 [35]: 4.36 µM
GI50 [36]: 3.44 µM
GI50 [37]: 3 µM
GI50 [38]: 2.19 µM
GI50 [39]: 4.03 µM
GI50 [40]: 2.12 µM
GI50 [41]: 3.7 µM
GI50 [42]: 2.96 µM
GI50 [43]: 4 µM
